From patent US9856262B2, “Analogues of 4H-pyrazolo[1,5-a] benzimidazole compound as PARP inhibitors” (HUBEI BIO-PHARMACEUTICAL INDUSTRIAL TECHNOLOGICAL INSTITUTE …, priority 2014, dated 2018)

Legend:
HCC1937 cells = assay: Cellular PARylation assay; type: cell-based; conditions: Homo sapiens; HCC1937 cells, compound 30 min then 1 mM H2O2 10 min; read-out: cellular PARylation EC50
Experimental: Cellular PARylation Assay
HCC1937 cells were planted into 96 well plates at 4×10^4 cells/well and incubated at 37° C. in an incubator overnight. After being treated with a test compound for 30 min, cells were then treated with 1 mM H2O2 for 10 min. The cells were washed with 200 ul pre-chilled PBS twice and fixed with 100 ul pre-chilled methanol/acetone (7:3) on ice for 30 min. After being air-dried, the plates were blocked using PBS-Tween blocking solution (0.05%) with dissolved 5% nonfat dry milk for 30 min at room temperature. The cells were incubated with anti-PAR antibody 10H (1:100) at room temperature for 1 hour followed by washing with PBS-Tween20 for 3 times; and then added into a blocking solution including goat anti-mouse fluorescein isothiocyanate (FITC)-coupled secondary antibody and 1 μg/mL DAPI to incubate away from light at room temperature for 1 hour. After being washed with PBS-Tween20 for 3 times, the plate was analyzed with a fluorescence microplate counter (Flexstation III, Molecular Device).

PARP-1 = target: T1, PARP-1 (Homo sapiens, UniProt P09874); assay: PARP enzymatic assay (HT Universal Colorimetric PARP1 Assay Kit); type: biochemical; conditions: read-out: PARP-1 enzymatic inhibition IC50
T1 construct: purchased
Experimental: PARP Enzymatic Assay (Following the Manual of HT Universal Colorimetric PARP1 Assay Kit).
Histone proteins were coated on a 96-well plate and incubated overnight at 4° C. After be washed 3 times with 200 ul PBST solution, the plate was blocked with a blocking solution and incubated for 30 min at room temperature, and then washed with PBST solution 3 times. A compound to be tested was treated and added to the plate. Thereafter, 20 μl of diluted PARP1 (1 nM) or 20 μl of PARP2 (3 nM) solution was added into the reaction system and incubated for 1 or 2 hours. 50 ul of streptavidin-HRP mixture (1:50) was added into the plate and incubated for 30 min at room temperature. The plate was then washed with three times with PBST buffer. 100 μl of (HRP) (Chemiluminescent substrate A and substrate B (1:1)) was added into the plate, and the plate was immediately read on a microplate reader (Envision, PerkinElmer).

T1 sequence (P09874 whole entry): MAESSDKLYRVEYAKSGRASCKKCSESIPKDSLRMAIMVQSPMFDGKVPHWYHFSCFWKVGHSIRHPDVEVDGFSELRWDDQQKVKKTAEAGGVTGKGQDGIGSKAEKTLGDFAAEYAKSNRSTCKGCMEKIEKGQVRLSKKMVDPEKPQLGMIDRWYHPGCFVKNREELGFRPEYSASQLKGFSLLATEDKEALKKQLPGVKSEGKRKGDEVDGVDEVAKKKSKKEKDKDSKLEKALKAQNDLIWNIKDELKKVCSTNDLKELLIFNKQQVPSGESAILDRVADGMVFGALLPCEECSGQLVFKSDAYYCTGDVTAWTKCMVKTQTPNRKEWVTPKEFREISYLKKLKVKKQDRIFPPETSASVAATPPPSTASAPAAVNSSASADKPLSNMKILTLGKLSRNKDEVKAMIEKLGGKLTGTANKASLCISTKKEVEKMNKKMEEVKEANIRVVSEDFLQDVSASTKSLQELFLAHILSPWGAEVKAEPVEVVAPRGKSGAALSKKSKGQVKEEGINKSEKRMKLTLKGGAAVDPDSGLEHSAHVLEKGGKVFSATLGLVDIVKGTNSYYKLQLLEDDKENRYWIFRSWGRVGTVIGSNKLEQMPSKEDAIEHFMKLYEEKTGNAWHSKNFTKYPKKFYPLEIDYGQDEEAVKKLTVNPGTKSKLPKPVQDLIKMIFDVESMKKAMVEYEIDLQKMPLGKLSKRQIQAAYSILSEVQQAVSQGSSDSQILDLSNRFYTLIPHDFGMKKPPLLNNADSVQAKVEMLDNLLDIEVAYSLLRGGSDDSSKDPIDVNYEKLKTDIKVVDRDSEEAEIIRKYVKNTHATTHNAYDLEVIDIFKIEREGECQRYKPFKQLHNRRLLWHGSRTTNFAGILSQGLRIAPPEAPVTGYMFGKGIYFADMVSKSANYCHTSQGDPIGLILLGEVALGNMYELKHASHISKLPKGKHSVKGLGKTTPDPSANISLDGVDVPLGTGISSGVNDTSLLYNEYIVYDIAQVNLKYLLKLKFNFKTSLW

EC50 (HCC1937 cells) [nM] | IC50 (PARP-1) [nM] | SMILES
101 to 1000 | 1 to 100 | CNCc1ccc(-c2cnn3c2[nH]c2cc(F)cc(C(N)=O)c23)c(F)c1 [Example 42, 6-fluoro-3-(2-fluoro-4-((methylamino)methyl)phenyl)-4H-benzo[4,5]imidazo[1,2-b]pyrazole-8-carboxamide]
1 to 100 | 1 to 100 | CC(C)N1CCC(c2cnn3c2[nH]c2cc(F)cc(C(N)=O)c23)CC1 [Example 10, 6-fluoro-3-(1-isopropylpiperidin-4-yl)-4H-benzo[4,5]imidazo[1,2-b]pyrazole-8-carboxamide]
> 1000 | 101 to 1000 | NC(=O)c1cc(F)cc2[nH]c3c(-c4ccncc4)cnn3c12 [Example 45, 6-fluoro-3-(pyridin-4-yl)-4H-benzo[4,5]imidazo[1,2-b]pyrazole-8-carboxamide]
1 to 100 | 1 to 100 | CC1(c2cnn3c2[nH]c2cc(F)cc(C(N)=O)c23)CN(CC2CC2)C1 [Example 104, 3-(1-(cyclopropylmethyl)-3-methylazetidin-3-yl)-6-fluoro-4H-benzo[4,5]imidazo[1,2-b]pyrazole-8-carboxamide]
1 to 100 | 1 to 100 | CCN1CCC(c2cnn3c2[nH]c2cc(F)cc(C(N)=O)c23)CC1 [Example 2, 3-(1-ethylpiperidin-4-yl)-6-fluoro-4H-benzo[4,5]imidazo[1,2-b]pyrazole-8-carboxamide]
> 1000 | 101 to 1000 | NC(=O)c1cc(F)cc2[nH]c3c(-c4ccc(F)cc4)cnn3c12 [Example 41, 6-fluoro-3-(4-fluorophenyl)-4H-benzo[4,5]imidazo[1,2-b]pyrazole-8-carboxamide]
> 1000 | 1 to 100 | NC(=O)c1cc(F)cc2[nH]c3c(CNC(=O)C4CC4)cnn3c12 [Example 40, 3-(cyclopropanecarboxamidomethyl)-6-fluoro-4H-benzo[4,5]imidazo[1,2-b]pyrazole-8-carboxamide]
1 to 100 | 1 to 100 | CN(C)C1CCC(c2cnn3c2[nH]c2cc(F)cc(C(N)=O)c23)CC1 (stereo not drawn) [Example 48, 3-(4-(dimethylamino)cyclohexyl)-6-fluoro-4H-benzo[4,5]imidazo[1,2-b]pyrazole-8-carboxamide]
1 to 100 | 1 to 100 | CCN1CCC(c2cnn3c2[nH]c2cccc(C(N)=O)c23)CC1 [Example 27, 3-(1-ethylpiperidin-4-yl)-4H-benzo[4,5]imidazo[1,2-b]pyrazole-8-carboxamide]
1 to 100 | 1 to 100 | CCN1CCC(c2cnn3c2[nH]c2cc(F)cc(C(N)=O)c23)C1 (stereo not drawn) [Example 21, 3-(1-ethylpyrrolidin-3-yl)-6-fluoro-4H-benzo[4,5]imidazo[1,2-b]pyrazole-8-carboxamide]
1 to 100 | 1 to 100 | NC(=O)c1cc(F)cc2[nH]c3c(C4CCN(C5CC5)CC4)cnn3c12 [Example 4, 3-(1-cyclopropylpiperidin-4-yl)-6-fluoro-4H-benzo[4,5]imidazo[1,2-b]pyrazole-8-carboxamide]
1 to 100 | 1 to 100 | CCCN1CCC(c2cnn3c2[nH]c2cc(F)cc(C(N)=O)c23)CC1 [Example 12, 6-fluoro-3-(1-propylpiperidin-4-yl)-4H-benzo[4,5]imidazo[1,2-b]pyrazole-8-carboxamide]
101 to 1000 | 1 to 100 | NC(=O)c1cc(F)cc2[nH]c3c(C4CCN(C(=O)C5CC5)CC4)cnn3c12 [Example 8, 3-(1-(cyclopropylcarbonyl)piperidin-4-yl)-6-fluoro-4H-benzo[4,5]imidazo[1,2-b]pyrazole-8-carboxamide]
101 to 1000 | 1 to 100 | NCCN1CCC(c2cnn3c2[nH]c2cc(F)cc(C(N)=O)c23)CC1 [Example 13, 3-(1-(2-aminoethyl)piperidin-4-yl)-6-fluoro-4H-benzo[4,5]imidazo[1,2-b]pyrazole-8-carboxamide]
101 to 1000 | 1 to 100 | NC(=O)c1cc(F)cc2[nH]c3c(C4CCN(C5COC5)CC4)cnn3c12 [Example 11, 6-fluoro-3-(1-(oxetan-3-yl)piperidin-4-yl)-4H-benzo[4,5]imidazo[1,2-b]pyrazole-8-carboxamide]
101 to 1000 | 1 to 100 | NC(=O)c1cc(F)cc2[nH]c3c(C4CCNCC4)cnn3c12 [Example 1, 6-fluoro-3-(piperidin-4-yl)-4H-benzo[4,5]imidazo[1,2-b]pyrazole-8-carboxamide]
1 to 100 | 1 to 100 | CN1CCCC(c2cnn3c2[nH]c2cc(F)cc(C(N)=O)c23)CC1 (stereo not drawn) [Example 19, 6-fluoro-3-(1-methylazepan-4-yl)-4H-benzo[4,5]imidazo[1,2-b]pyrazole-8-carboxamide]
> 1000 | 101 to 1000 | NC(=O)c1cc(F)cc2[nH]c3c(-c4ccc(C5CCCNC5)cc4)cnn3c12 (stereo not drawn) [Example 46, 6-fluoro-3-(4-(piperidin-3-yl)phenyl)-4H-benzo[4,5]imidazo[1,2-b]pyrazole-8-carboxamide]
101 to 1000 | 101 to 1000 | CNCc1ccc(F)c(-c2cnn3c2[nH]c2cc(F)cc(C(N)=O)c23)c1 [Example 44, 6-fluoro-3-(2-fluoro-5-((methylamino)methyl)phenyl)-4H-benzo[4,5]imidazo[1,2-b]pyrazole-8-carboxamide]

SMILES | EC50 (HCC1937 cells) [nM] | IC50 (PARP-1) [nM]
CCN1CCC(C)(c2c(C)nn3c2[nH]c2cc(F)cc(C(N)=O)c23)CC1 [Example 112, 3-(1-ethyl-4-methylpiperidin-4-yl)-6-fluoro-2-methyl-4H-benzo[4,5]imidazo[1,2-b]pyrazole-8-carboxamide] | 1 to 100 | 1 to 100
CC1(c2cnn3c2[nH]c2cc(F)cc(C(N)=O)c23)CCN(CC2(O)CC2)CC1 [Example 70, 6-fluoro-3-(1-((1-hydroxycyclopropyl)methyl)-4-methylpiperidin-4-yl)-4H-benzo[4,5]imidazo[1,2-b]pyrazole-8-carboxamide] | 1 to 100 | 1 to 100
CC1(c2cnn3c2[nH]c2cc(F)cc(C(N)=O)c23)CCN(CC2CCOCC2)CC1 [Example 66, 6-fluoro-3-(4-methyl-1-((tetrahydro-2H-pyran-4-yl)methyl)piperidin-4-yl)-4H-benzo[4,5]imidazo[1,2-b]pyrazole-8-carboxamide] | 1 to 100 | 1 to 100
CCN1CCC(CC)(c2cnn3c2[nH]c2cc(F)cc(C(N)=O)c23)CC1 [Example 107, 3-(1,4-diethylpiperidin-4-yl)-6-fluoro-4H-benzo[4,5]imidazo[1,2-b]pyrazole-8-carboxamide] | 1 to 100 | 1 to 100
CCN1CCC(C)(c2cnn3c2[nH]c2cc(Cl)cc(C(N)=O)c23)CC1 [Example 89, 6-chloro-3-(1-ethyl-4-methylpiperidin-4-yl)-4H-benzo[4,5]imidazo[1,2-b]pyrazole-8-carboxamide] | 101 to 1000 | 1 to 100
COCCN1CCC(C)(c2cnn3c2[nH]c2cc(F)cc(C(N)=O)c23)CC1 [Example 69, 6-fluoro-3-(1-(2-methoxyethyl)-4-methylpiperidin-4-yl)-4H-benzo[4,5]imidazo[1,2-b]pyrazole-8-carboxamide] | 1 to 100 | 1 to 100
Cc1nn2c([nH]c3cc(F)cc(C(N)=O)c32)c1C1(C)CCN(CC(C)(C)O)CC1 [Example 116, 6-fluoro-3-(1-(2-hydroxy-2-methylpropyl)-4-methylpiperidin-4-yl)-2-methyl-4H-benzo[4,5]imidazo[1,2-b]pyrazole-8-carboxamide] | 1 to 100 | 1 to 100
N#CC1(c2cnn3c2[nH]c2cc(F)cc(C(N)=O)c23)CCN(CC2CC2)CC1 [Example 108, 3-(4-cyano-1-(cyclopropylmethyl)piperidin-4-yl)-6-fluoro-4H-benzo[4,5]imidazo[1,2-b]pyrazole-8-carboxamide] | 1 to 100 | 1 to 100
CC(C)N1CCC(C)(c2cnn3c2[nH]c2cc(F)cc(C(N)=O)c23)CC1 [Example 105, 6-fluoro-3-(1-isopropyl-4-methylpiperidin-4-yl)-4H-benzo[4,5]imidazo[1,2-b]pyrazole-8-carboxamide] | 1 to 100 | 1 to 100
CC(C)CN1CCC(C)(c2cnn3c2[nH]c2cc(F)cc(C(N)=O)c23)CC1 [Example 82, 6-fluoro-3-(1-isobutyl-4-methylpiperidin-4-yl)-4H-benzo[4,5]imidazo[1,2-b]pyrazole-8-carboxamide] | 1 to 100 | 1 to 100
CC1(c2cnn3c2[nH]c2cc(F)cc(C(N)=O)c23)CCN(Cc2ccc(=O)[nH]n2)CC1 [Example 87, 6-fluoro-3-(4-methyl-1-((6-oxo-1,6-dihydropyridazin-3-yl)methyl)piperidin-4-yl)-4H-benzo[4,5]imidazo[1,2-b]pyrazole-8-carboxamide] | 101 to 1000 | 1 to 100
